Our source for the MIC values is US7238694B2, “Rifamycin imino derivatives effective against drug-resistant microbes” (Cumbre Pharmaceuticals, Inc., priority 2004, dated 2007).

Common to all, as to format: cell-based
The test system of assay [1] is Staphylococcus aureus ATCC29213. Briefly: MIC, microbroth dilution (NCCLS). The settings on record: rifS strain, Cation-Adjusted Mueller-Hinton Broth, 37° C., read-out: MIC.
In assay [2] the test system is Staphylococcus aureus ATCC29213 rpoB^H418Y. The assay is described as follows: microbe, parasite or virus in culture. Particulars: Staphylococcus aureus, ATCC29213; rifR strain; Cation-Adjusted Mueller-Hinton Broth, 37° C.; read-out: MIC.
The test system of assay [3] is Staphylococcus aureus MT1222 gyrA^A116E grlB^S80F. The assay is described as follows: microbe, parasite or virus in culture. The settings on record: cipR strain, Cation-Adjusted Mueller-Hinton Broth, 37° C., read-out: MIC.
For assay [4], the system named is Staphylococcus epidermidis ATCC12228. Briefly: MIC, microbroth dilution (NCCLS). Particulars: rifS strain, Cation-Adjusted Mueller-Hinton Broth, 37° C., read-out: MIC.
In assay [5] the test system is Streptococcus pneumoniae ATCC6303. Briefly: MIC, microbroth dilution (NCCLS). The settings on record: rifS strain, THY Broth with 1 mg/mL catalase, 5% CO2, 37° C., read-out: MIC.
The test system of assay [6] is Streptococcus pyogenes ATCC19615. The assay is described as follows: MIC, microbroth dilution (NCCLS). Particulars: rifS strain, THY Broth, 37° C., read-out: MIC.
The test system of assay [7] is Haemophilus influenzae ATCC10211. Briefly: MIC, microbroth dilution (NCCLS). The settings on record: rifS strain, BHI Broth with NAD and hematin, 37° C., read-out: MIC.

Values after ≈ are worked out from the molar mass of the structure shown.

Take `CO[C@H]1/C=C/O[C@@]2(C)Oc3c(C)c(O)c4c(O)c(c(/C=N/N5CCN(c6nc7c(cc6F)c(=O)c(C(=O)O)cn7C6CC6)CC5)c(O)c4c3C2=O)NC(=O)/C(C)=C\C=C\[C@H](C)[C@H](O)[C@@H](C)[C@@H](O)[C@@H](C)[C@H](OC(C)=O)[C@@H]1C` [Example 35, 3-[4-(3-Carboxy-1-cyclopropyl-6-fluoro-4-oxo-1,4-dihydro-[1,8]naphthyridine-7-yl)-piperazin-1-yl-aminomethylenyl]-rifamycin SV]: the MIC in assay [1] lay in the range of 0.008 to 1 µg/mL (≈ 0.00758 to 0.948 µM); in assay [2] it was 0.06 to 16 µg/mL (≈ 0.0569 to 15.2 µM); in assay [3], 0.008 to 0.125 µg/mL (≈ 0.00758 to 0.118 µM); in assay [4] it was 0.008 to 0.1 µg/mL (≈ 0.00758 to 0.0948 µM); in assay [5] it was 0.008 to 0.06 µg/mL (≈ 0.00758 to 0.0569 µM); in assay [6], 0.008 to 0.03 µg/mL (≈ 0.00758 to 0.0284 µM). Moreover, the MIC in assay [7] lay within 0.125 to 4 µg/mL (≈ 0.118 to 3.79 µM).

As to `COc1c(N2CCC(C3(N(C)C4CCN(/N=C/c5c6c(O)c7c(O)c(C)c8c(c7c5O)C(=O)[C@@](C)(O/C=C/[C@H](OC)[C@@H](C)[C@@H](OC(C)=O)[C@H](C)[C@H](O)[C@H](C)[C@@H](O)[C@@H](C)/C=C/C=C(/C)C(=O)N6)O8)CC4)CC3)C2)c(F)cc2c(=O)c(C(=O)O)cn(C3CC3)c12` (mixture of isomers) [Example 16], the MIC lay in the range of 0.008 to 1 µg/mL (≈ 0.00655 to 0.819 µM) in assay [1]; 0.06 to 16 µg/mL (≈ 0.0491 to 13.1 µM) in assay [2]; 0.008 to 0.125 µg/mL (≈ 0.00655 to 0.102 µM) in assay [3]; 0.008 to 0.1 µg/mL (≈ 0.00655 to 0.0819 µM) in assay [4]; 0.008 to 0.06 µg/mL (≈ 0.00655 to 0.0491 µM) in assay [5]; 0.008 to 0.03 µg/mL (≈ 0.00655 to 0.0246 µM) in assay [6]. For the same compound, the MIC in assay [7] lay within 0.125 to 4 µg/mL (≈ 0.102 to 3.27 µM).

As for `CO[C@H]1/C=C/O[C@@]2(C)Oc3c(C)c(O)c4c(O)c(c(/C=N/N(C)C5CCN(c6nc7c(cc6F)c(=O)c(C(=O)O)cn7-c6ccc(F)cc6F)C5)c(O)c4c3C2=O)NC(=O)/C(C)=C\C=C\[C@H](C)[C@H](O)[C@@H](C)[C@@H](O)[C@@H](C)[C@H](OC(C)=O)[C@@H]1C` (mixture of isomers) [Example 43, (R/S)-3-[1-[3-Carboxy-1-(2,4-difluoro-phenyl)-6-fluoro-4-oxo-1,4-dihydro-[1,8]naphthyridin-7-yl]-pyrrolidinyl-3-N′-methylhydrazinomethylenyl]rifamycin SV], the MIC in assay [1] fell in the range of 0.008 to 1 µg/mL (≈ 0.00701 to 0.876 µM); in assay [2], 0.06 to 16 µg/mL (≈ 0.0526 to 14 µM); in assay [3], 0.008 to 0.125 µg/mL (≈ 0.00701 to 0.11 µM); in assay [4], 0.008 to 0.1 µg/mL (≈ 0.00701 to 0.0876 µM); in assay [5], 0.008 to 0.06 µg/mL (≈ 0.00701 to 0.0526 µM); in assay [6], 0.008 to 0.03 µg/mL (≈ 0.00701 to 0.0263 µM). Further, the MIC in assay [7] lay in the range of 0.125 to 4 µg/mL (≈ 0.11 to 3.51 µM).

With `CO[C@H]1/C=C/O[C@@]2(C)Oc3c(C)c(O)c4c(O)c(c(/C=N/N5CCN(c6c(F)cc7c(=O)c(C(=O)O)cn8c7c6OCC8C)CC5C)c(O)c4c3C2=O)NC(=O)/C(C)=C\C=C\[C@H](C)[C@H](O)[C@@H](C)[C@@H](O)[C@@H](C)[C@H](OC(C)=O)[C@@H]1C` (mixture of isomers) [Example 44, (R/S)-3-[9-fluoro-3-methyl-10-(3-methyl-piperazin-1-hydrazinomethylenyl)-7-oxo-7H-pyrido[1,2,3-de]-1,4-benzoxazine-6-carboxylic acid]rifamycin SV], the MIC is 0.008 to 1 µg/mL (≈ 0.00738 to 0.922 µM) in assay [1]; 0.06 to 16 µg/mL (≈ 0.0553 to 14.8 µM) in assay [2]; 0.008 to 0.125 µg/mL (≈ 0.00738 to 0.115 µM) in assay [3]; 0.008 to 0.1 µg/mL (≈ 0.00738 to 0.0922 µM) in assay [4]; 0.008 to 0.06 µg/mL (≈ 0.00738 to 0.0553 µM) in assay [5]; 0.008 to 0.03 µg/mL (≈ 0.00738 to 0.0277 µM) in assay [6]. In assay [7], the MIC is 0.125 to 4 µg/mL (≈ 0.115 to 3.69 µM).

As to `COc1c(N2CCN(C3CCN(/N=C/c4c5c(O)c6c(O)c(C)c7c(c6c4O)C(=O)[C@@](C)(O/C=C/[C@H](OC)[C@@H](C)[C@@H](OC(C)=O)[C@H](C)[C@H](O)[C@H](C)[C@@H](O)[C@@H](C)/C=C/C=C(/C)C(=O)N5)O7)C3)CC2)c(F)cc2c(=O)c(C(=O)O)cn(C3CC3)c12` (mixture of isomers) [Example 28, (R/S)-3-{3-[1-(3-carboxy-1-cyclopropyl-6-fluoro-8-methoxy-4-oxo-1,4-dihydroquinolin-7-yl)-piperazin-4-yl]-pyrrolidinyl-1-hydrazino-methylenyl}-rifamycin SV], the MIC was 0.008 to 1 µg/mL (≈ 0.00694 to 0.867 µM) in assay [1]; 0.06 to 16 µg/mL (≈ 0.052 to 13.9 µM) in assay [2]; 0.008 to 0.125 µg/mL (≈ 0.00694 to 0.108 µM) in assay [3]; 0.008 to 0.1 µg/mL (≈ 0.00694 to 0.0867 µM) in assay [4]; 0.008 to 0.06 µg/mL (≈ 0.00694 to 0.052 µM) in assay [5]; 0.008 to 0.03 µg/mL (≈ 0.00694 to 0.026 µM) in assay [6]. Moreover, in assay [7], the MIC fell in the range of 0.125 to 4 µg/mL (≈ 0.108 to 3.47 µM).

Take `COc1c(N2CCN(/N=C/c3c4c(O)c5c(O)c(C)c6c(c5c3O)C(=O)[C@@](C)(O/C=C/[C@H](OC)[C@@H](C)[C@@H](OC(C)=O)[C@H](C)[C@H](O)[C@H](C)[C@@H](O)[C@@H](C)/C=C/C=C(/C)C(=O)N4)O6)CC2)c(F)cc2c(=O)c(C(=O)O)cn(C3CC3)c12` [Example 20, 3-[4-(3-Carboxy-1-cyclopropyl-6-fluoro-8-methoxy-4-oxo-1,4-dihydroquinolin-7-yl)-piperazin-1-yl-aminomethylenyl]-rifamycin SV]: the MIC in assay [1] fell in the range of 0.008 to 1 µg/mL (≈ 0.00738 to 0.922 µM); in assay [2], 0.06 to 16 µg/mL (≈ 0.0553 to 14.8 µM); in assay [3] it was 0.008 to 0.125 µg/mL (≈ 0.00738 to 0.115 µM); in assay [4], 0.008 to 0.1 µg/mL (≈ 0.00738 to 0.0922 µM); in assay [5], 0.008 to 0.06 µg/mL (≈ 0.00738 to 0.0553 µM); in assay [6], 0.008 to 0.03 µg/mL (≈ 0.00738 to 0.0277 µM). In addition, the MIC in assay [7] lay in the range of 0.125 to 4 µg/mL (≈ 0.115 to 3.69 µM).
